Several values for one entry are separate records, joined by “and”; a condition that tells them apart may be missing. Equal entries are not always repeated. Where two headings read alike, the source gives them in different places.
What was measured:
[1] = tested on: GSH intracellular content of CD34+ cells; assay: GSH assay in CD34+ cells after NAC or BSO; format: cell-based, human; conditions: preincubation 16 to 18 hours, NAC 1 mM or BSO 50 μM
Method: Ten healthy volunteers were recruited after a medical interview. The study followed the guidelines of the local authorities and was approved by the local ethical committee. […] CD34+ cells were separated on a MACS system by positive selection using CD34+ Separation Kit according to the manufacturer's instructions. Cells were incubated in RPMI-1640 medium supplemented with 10% heat inactivated fetal bovine serum at 37° C. in a humidified 5% CO2 atmosphere. Cells used for pharmacodynamic study were incubated in busulphan of final concentrations of 1, 2.5, 5, 10, 20, 40 or 60 μg/ml for 2, 4 or 8 hours. Cells used for the GSH modulation part were treated with N-acetyl-L-cysteine (NAC) (1 mM) or L-buthionine-[S,R]-sulfoximine (BSO) (50 μM) for 16 to 18 hours, followed by busulphan in final concentrations of 4.5 or 10 μg/ml for 4 hours. […]
(§1) Intracellular concentrations of GSH were determined using the enzymatic assay according to Tietze (Tietze, F. Enzymic method for quantitative determination of nanogram amounts of total and oxidized glutathione: applications to mammalian blood and other tissues. Anal Biochem, 27: 502-522., 1969). Total cellular protein was assessed according to Lowry after dissolving the precipitate in 1M NaOH (Lowry, O. H., Rosebrough, N. J., Farr, A. L., and Randall, R. J. Protein measurement with the folin phenol reagent. J Biol Chem, 193: 265-275., 1951)

CFU-GM = assay: Busulphan-induced myelosuppression in mice with GSH modulators, CFU-GM assay; format: in vivo, Balb/c mice
Method: Balb/c mice were purchased from B&K Universal Limited, Sweden. Female mice were 6 to 12 weeks old with a weight ranging from 20 to 24 g. Local animal ethical committee approved animals housing conditions and experimental design. Animals were fed with standard pelleted food and water ad libitum. […] Treatment consisted of N-acetyl-L-cysteine (1.38±0.07 mmol/kg) orally or L-buthionine-[S,R]-sulfoximine (0.93±0.03 mmol/kg) intraperitoneally followed by liposomal busulphan (37±1.4 mg/kg) intraperitoneally. Animals were sacrificed at day 1, 3, 6, 9 or 12 after the last dose of treatment.
Liposomal busulphan was used in the in vivo study and prepared as described in example 1. Liposomal busulphan was prepared freshly before each experiment and stored in refrigerator until use.
(§2) CD34+ cells were treated with NAC, BSO, DMSO or busulphan alone or in combinations, washed and 2000 cells were plated in 1.1 ml of MethoCult™ GF H4434 in 35 mm Petri dishes in triplicates. Colonies were scored on day 14 using an inverted microscope. Murine bone marrow was harvested on day 1, 3, 6, 9 or 12 after the last dose of the treatment. Control group and each treatment group consisted of a minimum of three animals at each time point. Mice were sacrificed under general anaesthesia. Both femurs were removed and bone marrow was flushed out under sterile conditions. Cells were counted in Türk solution and nucleated cells (0.5×10^5) were plated in 1.1 ml of MethoCult™ GF M3534 in 35 mm Petri dishes in triplicates. The plates were placed in incubator (37° C., 5% CO2 and 100% humidity). CFU-GM, equal to or more than 50 cells, were counted on the day 7 using an inverted microscope.

[2] = NAC therapy during conditioning prior to allogeneic SCT: liver function, VOD, course of transplantation (Example 12)
Source text: Ten patients, who underwent allogeneic stem cell transplantation (SCT) were included in the study. Six patients were transplanted with stem cells from matched unrelated donors, three with stem cells from HLA (Human Leukocyte Antigen) identical sibling donors and one with cord blood. The patients were included on the basis of high risk for hepatic toxicity. […] All patients had been tested negative for viral hepatitis B and C during pre-transplantation evaluation.
The initial busulphan dose given to these patients was 4 mg/kg/day. Busulphan was given twice daily. In cases of high busulphan serum concentrations the dose was reduced during conditioning as described below. […] Nine patients were given NAC during conditioning with busulphan. Treatment with NAC was given once daily as a three-hour infusion, 100 mg per kg body weight starting six hours after the previous busulphan dose and ending three hours before the following dose. The number of NAC doses given during and after busulphan treatment among the patients is described in Table 9. […] When restarted, NAC was administered not earlier than twelve hours after the end of cyclophosphamide infusion. The treatment was continued until elevated liver transaminases were normalized or, if normal transaminases at initiation of therapy, until conditioning was completed.
Tissue typing, conditioning, GVHD prophylaxis and infectious prophylaxis were performed as generally known to the skilled person. In short, the patients were treated in reversed isolation, immunosuppression consisted of four doses of methotrexate combined with cyclosporine and antithymocyte globuline, (Thymoglobulin, Sangstadt, Lyon, France), was given to recipients of unrelated stem cells.

[3] = tested on: GSH intracellular level of P39 cells; assay: GSH assay in P39 cells after NAC or BSO; format: cell-based, human; conditions: NAC 1 mM 16 to 18 hours
Method: (§3) The P39 cell line was kindly provided by Prof Y. Yoshida, Center for South East Asian Studies, Kyoto University, Kyoto, Japan. Cells were cultured in RPMI-1640 medium supplemented with 10% heat inactivated fetal bovine serum (FBS), penicillin (25 IU/ml) and streptomycin (25 μg/ml) at 37° C. in a humidified 5% CO2 atmosphere. Exponentially growing cells were used in all experiments. Cells were incubated with N-acetyl-L-cysteine (1 mM) or L-buthionine-[S,R]-sulfoximine (50 μM) for 16 to 18 hours and then with busulphan in final concentrations of 10, 20 or 40 μg/ml for 4 hours. After incubation, cells were washed and re-cultured in busulphan-free medium for 72 hours.
as §1

[4] = Busulphan AUC before and after NAC in patients (Example 12); format: in vivo, human patients; conditions: for AUC: plasma
Method: Busulphan was given twice daily.
Busulphan was determined using gas chromatography with electron capture detector. Internal standard (1,5-bis(methanesulphonyloxy) pentane) was added to 0.5 ml plasma. Busulphan and internal standard were converted to 1,4-diiodobutane and 1,5-diiodopentane, respectively.

[5] = tested on: CFU-GM from normal CD34+ hematopoietic progenitor cells; assay: Clonogenic assay of CD34+ cells, CFU-GM (Example 11); format: cell-based, human
Method: (§4) Ten healthy volunteers were recruited after a medical interview. The study followed the guidelines of the local authorities and was approved by the local ethical committee. […] CD34+ cells were separated on a MACS system by positive selection using CD34+ Separation Kit according to the manufacturer's instructions. Cells were incubated in RPMI-1640 medium supplemented with 10% heat inactivated fetal bovine serum at 37° C. in a humidified 5% CO2 atmosphere. Cells used for pharmacodynamic study were incubated in busulphan of final concentrations of 1, 2.5, 5, 10, 20, 40 or 60 μg/ml for 2, 4 or 8 hours. Cells used for the GSH modulation part were treated with N-acetyl-L-cysteine (NAC) (1 mM) or L-buthionine-[S,R]-sulfoximine (BSO) (50 μM) for 16 to 18 hours, followed by busulphan in final concentrations of 4.5 or 10 μg/ml for 4 hours. After incubation, cells were washed and plated for clonogenic assay.
as §2

myeloid P39 cell line = assay: Proliferation, clonogenicity and apoptosis in P39 cells; format: cell-based, human; conditions: pretreatment
Method: as §3
Proliferation was assessed using the [^3H]thymidine incorporation assay. Clonogenic capacity was determined in 0.9% methylcellulose and apoptosis with morphology in May-Grünwald-Giemsa staining as described in (Hassan, Z., Hassan, M., and Hellstrom-Lindberg, E. The pharmacodynamic effect of busulfan in the P39 myeloid cell line in vitro. Leukemia, 15: 1240-1247, 2001).

[6] = tested on: Erythroid colonies from normal CD34+ hematopoietic progenitor cells; assay: Clonogenic assay of CD34+ cells, erythroid colonies (Example 11); format: cell-based, human; conditions: bone marrow donors BM 1-5 and Mean
Method: as §4
CD34+ cells were treated with NAC, BSO, DMSO or busulphan alone or in combinations, washed and 2000 cells were plated in 1.1 ml of MethoCult™ GF H4434 in 35 mm Petri dishes in triplicates. Colonies were scored on day 14 using an inverted microscope. […] Cells were counted in Türk solution and nucleated cells (0.5×10^5) were plated in 1.1 ml of MethoCult™ GF M3534 in 35 mm Petri dishes in triplicates. […] CFU-GM, equal to or more than 50 cells, were counted on the day 7 using an inverted microscope.

[7] = 25° C.; cited from earlier work
[8] = Half-life of busulphan in RPMI-1640 medium (in vitro pharmacokinetics); format: physicochemical; conditions: 37° C.
[9] = tested on: GSH in murine hepatocytes; conditions: cited from earlier work
[10] = After NAC therapy, one line per patient
[11] = After conditioning, one line per patient

## CC(=O)N[C@@H](CS)C(=O)O [NAC, N-acetyl-L-cysteine]
[1]
  GSH intracellular content compared to CD34+ cells incubated in medium: 150±30%
CFU-GM
  effect alone on CFU-GM formation compared to the control group: Neither NAC nor BSO influenced
CFU-GM; NAC 1.38 mmol/kg orally or BSO 0.93 mmol/kg ip before busulphan
  effect of combination on the myelosuppressive effect of busulphan: did not significantly influence
[2]; [10]
  ALT: 0.77 ukat/L and 1.19 ukat/L and 0.61 ukat/L and 0.52 ukat/L
  AST: 0.29 ukat/L and 0.33 ukat/L and 0.42 ukat/L and 0.49 ukat/L
  Bilirubin: 9 µmol/L and 19 µmol/L and 7 µmol/L and 6 µmol/L
[2]; [11]
  ALT: 4.11 ukat/L and 3.45 ukat/L and 0.78 ukat/L and 2.24 ukat/L
  AST: 1.76 ukat/L and 1.50 ukat/L and 0.40 ukat/L and 0.82 ukat/L
  Bilirubin: 4 µmol/L and 12 µmol/L and 11 µmol/L and 6 µmol/L
[2]; Before NAC therapy, one line per patient, normal range <0.8
  ALT: 1.51 ukat/L and 2.25 ukat/L and 0.59 ukat/L and 8.10 ukat/L
[2]; Before NAC therapy, one line per patient, normal range <0.80
  AST: 0.85 ukat/L and 0.96 ukat/L and 0.38 ukat/L and 11.2 ukat/L
[2]; Before NAC therapy, one line per patient, normal range <26
  Bilirubin: 4 µmol/L and 5 µmol/L and 8 µmol/L and 3 µmol/L
[2]; Day of SCT = day 0, one line per patient
  Engraftment WBC day, ≧0.5 × 10^9/L: 13 day (2×) and 12 day (3×) and 15 day and 24 day and 10 day and 14 day and 16 day
[2]; Day of SCT = day 0, one line per patient, NAC during conditioning
  First day of WBC ≦0.5 × 10^9/L: 1 day and −1 day (2×) and −3 day and 0 day and 4 day and 5 day and 6 day and 2 day and −2 day
[2]; in vivo
  liver transferases after treatment in patients elevated at initiation: less elevated test results after treatment
  side effects related to the NAC infusions: no side effects related to the NAC infusions were observed
[2]; one line per patient
  Chimerism at 1 month post SCT: 100% donor
  Patient outcome: Died day
  Recurrence of the malignancy: No (9×) and 15 mo after
[2]; ten patients
  neutropenia: Neutropenia developed in all patients
[2]; ten patients at high risk of VOD
  VOD or fatal liver toxicity: None of the patients developed VOD or fatal liver toxicity
[2]; three months after SCT, five patients
  donor origin of hematopoietic cells (CD3+, Cd19+, CD45+) in peripheral blood: 100%
[3]
  increase of GSH intracellular level compared to cells cultured in medium: 10%
[4]; human, in vivo
  effect on busulphan serum concentrations: not affected
[5]; CD34+ cells
  effect alone on colony formation of CFU-GM or erythroid colonies: did not influence
[5]; CD34+ cells, preincubation then busulphan 4.5 or 10 μg/ml for 4 hours
  effect on busulphan-induced inhibition of colony formation of CFU-GM or erythroid colonies: did not affect
Myeloid P39 cell line
  effect on proliferation of busulphan treated P39 cells ([^3H]thymidine incorporation): did not influence the proliferation
Myeloid P39 cell line; busulphan 10, 20 or 40 μg/ml 4 hours
  effect on the effect of busulphan on clonogenic capacity of P39 cells: neither NAC nor BSO influenced
Myeloid P39 cell line; data not shown
  effect on levels of apoptosis induced by busulphan in P39 cells: did not change the levels of apoptosis

## CS(=O)(=O)OCCCCOS(C)(=O)=O [busulphan, 1,4-bis-(methanesulphonyloxy)butan]
[6]
  I-AUC50 (AUC inhibiting colony formation by 50%): 31.54 µg·h/mL and 18.13 µg·h/mL and 24.68 µg·h/mL and 30.12 µg·h/mL and 26.96 µg·h/mL
[6]; mean
  I-AUC50 (AUC inhibiting colony formation by 50%): 26.29 µg·h/mL
[7]
  water solubility: less than 1 microgram/ml
CFU-GM; liposomal busulphan 37±1.4 mg/kg ip once a day for 4 days
  myelosuppression (CFU-GM colony-formation assay): stable myelosuppression on days 3 through 12
[8]
  half-life: 16 h
  k (C=C0.e^−kt): 0.043
[9]; in vitro
  GSH depletion in murine hepatocytes: 50%
[9]; in vivo
  GSH depletion in murine hepatocytes: 60%
[4]; After NAC, one line per patient
  Busulphan AUC corrected for 2 mg/kg: 10385 ng·h/mL and 12350 ng·h/mL and 15230 ng·h/mL and 10043 ng·h/mL and 19445 ng·h/mL and 12828 ng·h/mL
[4]; human, 2 mg/kg, Busulphan AUC corrected for 2 mg/kg, After NAC, one line per patient
  AUC: 14800 ng·h/mL
[4]; human, oral, 4 mg/kg/day, patients no 2, 4 and 8, in this order, before NAC, read-out: AUC after the first dose of busulphan
  AUC: 20500 ng·h/mL
[4]; human, oral, patients no 2, 4 and 8, in this order, doses reduced by 35, 15 and 30%, read-out: mean values of the AUC's during doses 4-8
  AUC: 11400 ng·h/mL
[4]; patients no 2, 4 and 8, in this order, before NAC
  AUC after the first dose of busulphan: 15527 ng·h/mL and 16122 ng·h/mL
[4]; patients no 2, 4 and 8, in this order, doses reduced by 35, 15 and 30%
  mean values of the AUC's during doses 4-8: 10551 ng·h/mL and 12122 ng·h/mL
[5]; CFU-GM, bone marrow donors BM 1-5 and Mean
  I-AUC100 (AUC inhibiting colony formation by 100%): 69.33 µg·h/mL and 56.01 µg·h/mL and 74.14 µg·h/mL and 69.46 µg·h/mL and 74.38 µg·h/mL
